Results reported in patent US20100197663A1, “METHOD AND COMPOSITIONS FOR TREATMENT OF PAINFUL DISORDERS” (RODLEN LABORATORIES, INC., priority 2004, published 2010).

How the values were obtained:
[1] = system: widespread pain in the neck, back and arms associated with fibromyalgia; experiment: Case report: patient with fibromyalgia pain, oral treatment at H.S.; format: in vivo, human; conditions: person; analgesic taken by itself, before combination treatment
[2] = system: widespread pain in the neck, shoulders, arms and legs; experiment: Case report: patient with widespread pain, headaches, non-restorative sleep and fatigue, oral treatment at H.S.; format: in vivo, human; conditions: person; before combination treatment

Compound | response of pain to analgesic by itself [1] | response of pain to analgesic alone [2]
CC(=O)Nc1ccc(O)cc1 [acetaminophen] | unresponsive | 
CC(=O)Oc1ccccc1C(=O)O [aspirin] | unresponsive | 
CC(C)Cc1ccc(C(C)C(=O)O)cc1 (stereo not drawn) [ibuprofen] |  | unresponsive
